PMC8761492 (Life Science Alliance, 2022)
Starred links: 1 amine or outer side, 2 acyl side, 3 side chain; linkers in the order of their positions; H or OH if unused. Positions of bridges follow the written chain, without caps; N, C: chain ends. Non-standard residues stand in square brackets, D forms with d. Residues, ends and D or L forms follow the SMILES beside them. *: point of attachment. X1 = CC[C@H](C)[C@@H](N[*:1])[C@@H](O)CC(=O)O[C@H](C(=O)[C@H](C)C(=O)[*:2])C(C)C; NMeY = CN[C@@H](Cc1ccc(O)cc1)C(=O)O; dNMeL = CN[C@H](CC(C)C)C(=O)O; Pyruvoyl = CC(=O)C(=O)*

Assay: APLICOV-PC: safety, adverse events and laboratory abnormalities
Type: in vivo, human
Protocol: The plitidepsin clinical proof-of-concept study (APLICOV-PC, APL-D-002-20; EudraCT #2020-001993-31; NCT04382066) was a multicenter, randomized, parallel, open-label, proof-of-concept clinical trial, exploring three dose levels of plitidepsin (1.5, 2.0, and 2.5 mg/day, flat doses) for 3 consecutive days, as a 90-min i.v. infusion, in adult patients with COVID-19 who required hospitalization. The study was conducted in 10 hospital centers in Spain between 12 May 2020 and 26 November 2020. Presented data reflect all analyses completed by the cut-off date of 10 December 2020. The research was performed in accordance with good clinical practice guidelines and adhered to the tenets of the Declaration of Helsinki. The study protocol is available in Supplemental Data 1. Supplemental Data 2 summarizes the protocol amendments as well as post hoc analyses that were performed.
Adult (aged ≥18 yr) hospitalized patients with a positive SARS-CoV-2 infection confirmed by real-time RT-PCR testing of a nasopharyngeal exudate or the lower respiratory tract were eligible for inclusion in this study. Despite the eligibility of patients with samples from the lower respiratory tract, all patients reported here had only nasopharyngeal swab samples. Included patients must have had the onset of SARS-CoV-2 infection symptoms no more than 10 d before initiating the study. […] Women and men with partners of childbearing potential agreed to take effective contraception while on study and for 6 mo after the last dose of plitidepsin. All included patients provided written informed consent before the initiation of the study.
Key exclusion criteria included participation in another COVID-19–related clinical trial; receiving antivirals, chloroquine or derivatives, IL-6 receptor inhibitors, or immunomodulatory drugs for treatment of COVID-19; or requiring mechanical ventilation support at enrollment. Patients were also excluded for evidence of multi-organ failure, clinically relevant heart disease, clinically relevant arrhythmia or history of QTc interval prolongation, or neuropathy ≥ grade 2. Full exclusion criteria can be found in Supplemental Data 1.
Randomization was done through registration in the study’s electronic case report form. The system assigned a unique randomization number for each patient. Patients were enrolled sequentially and allocated by block randomization into the three dose groups (1.5, 2.0, and 2.5 mg plitidepsin) up to an initial sample size of nine patients per group. To ensure safety, the first three patients in the 2.0 mg group could not be enrolled until the first three patients in the 1.5 mg cohort had successfully completed Day 15 assessments (12 d after completing plitidepsin dosing); similarly, the first three patients in the 2.5 mg cohort could be not enrolled until the first three patients in the 2.0 mg cohort had successfully completed Day 15 assessments (12 d after completing plitidepsin dosing). Finally, three patients had to be treated in the 2.5 mg cohort to complete the accrual of nine patients per cohort. When multiple dose levels were open for enrollment, patients were randomized 1:1 or 1:1:1 as appropriate (Fig 4). After an interim safety analysis, a protocol amendment was approved to subsequently expand the accrual up to 45 patients (six additional patients per dose group).
Enrolled patients received plitidepsin administered as an i.v. infusion over 90 min on days 1, 2, and 3 at dose levels of 1.5, 2.0, and 2.5 mg. A single batch (Lot 16D19) was administered to all patients. All patients also received, 20–30 min before the infusion of plitidepsin (i.e., on days 1–3), a premedication regimen consisting in: diphenhydramine 25 mg i.v., ranitidine 50 mg i.v., and dexamethasone 8 mg orally. […]

[1] = Post-amendment (n = 36), Grade 1
[2] = Post-amendment (n = 36), Grade 2
[3] = after the premedication amendment
[4] = before the premedication amendment

## CC[C@H](C)[C@H]1NC(=O)[C@@H](NC(=O)[C@@H](CC(C)C)N(C)C(=O)[C@@H]2CCCN2C(=O)C(C)=O)[C@@H](C)OC(=O)[C@H](Cc2ccc(OC)cc2)N(C)C(=O)[C@@H]2CCCN2C(=O)[C@H](CC(C)C)NC(=O)[C@@H](C)C(=O)[C@H](C(C)C)OC(=O)C[C@@H]1O [Plitidepsin] (Pyruvoyl-P[dNMeL]T[X1]LP[NMeY](Me); ester 3-C)
1.5 mg cohort
  prevalence of grade 3–4 AEs: 33.3%
2.0 mg cohort
  prevalence of grade 3–4 AEs: 20.0%
2.5 mg cohort
  prevalence of grade 3–4 AEs: 40.0%
3 of 37 with normal baseline values
  patients with Grade 1 increase in CPK: 8.1%
5 of 12 with Grade 1 thrombocytopenia at entry
  patients whose platelet counts normalized: 41.7%
8 of 45, none considered related to plitidepsin
  patients with hyperglycemia: 18%
13 of 44, regardless of causality
  patients with elevation of AST: 30%
29 of 44, regardless of causality
  patients with elevation of ALT: 66%
36 patients, 108 infusions
  hypersensitivity reactions after changes to premedication: No new hypersensitivity reactions
Grade 3 hypersensitivity reaction, one event
  serious adverse event considered related to the study drug: 2.2 % subjects
[1]
  Abdominal pain: 2 (5.6%) N (%)
  Anorexia: 1 (2.8%) N (%)
  Asthenia: 1 (2.8%) N (%)
  Chest discomfort: 1 (2.8%) N (%)
  Diarrhea: 1 (2.8%) N (%)
  Dizziness: 2 (5.6%) N (%)
  Dysgeusia: 2 (5.6%) N (%)
  Dyspepsia: 2 (5.6%) N (%)
  Dysthermia: 1 (2.8%) N (%)
  Nausea: 11 (30.6%) N (%)
  Temperature regulation disorder: 1 (2.8%) N (%)
  Vomiting: 3 (8.3%) N (%)
[2]
  Amylase increased: 1 (2.8%) N (%)
  Asthenia: 1 (2.8%) N (%)
  Decreased appetite: 1 (2.8%) N (%)
  Diarrhea: 1 (2.8%) N (%)
  Lipase increased: 1 (2.8%) N (%)
  Nausea: 3 (8.3%) N (%)
  Vomiting: 2 (5.6%) N (%)
Post-amendment (n = 36), Grade 3
  Diarrhea: 1 (2.8%) N (%)
Pre-amendment (n = 9), Grade 1
  Nausea: 3 (33.3%) N (%)
  Vomiting: 2 (22.2%) N (%)
Pre-amendment (n = 9), Grade 2
  Nausea: 2 (22.2%) N (%)
Pre-amendment (n = 9), Grade 3
  Anaphylactic reaction: 1 (11.1%) N (%)
[3]
  proportion of patients with nausea: 38.9%
  proportion of patients with vomiting: 13.9%
All doses
  Grade 4 AEs: No Grade 4 AEs were reported
  hemotoxicity: did not show signs of clinically relevant hemotoxicity
All doses, 25 patients
  patients with treatment related adverse events: 55.5%
All doses, 44 of 45
  patients with one or more adverse events: 97.8%
All doses, 45 treated patients
  treatment-related abdominal pain: 4.4%
  treatment-related diarrhea: 6.7%
  treatment-related dizziness: 4.4%
  treatment-related dysgeusia: 4.4%
  treatment-related nausea: 42.2%
  treatment-related vomiting: 15.6%
All doses, NCI-CTCAE v5
  patients with at least one Grade ≥ 3 AE regardless of causality: 31%
Anaphylactic reaction at 1.5 mg/day and diarrhea at 2.5 mg/day
  number of Grade 3 AEs attributed to plitidepsin: Two
[4]
  proportion of patients with nausea: 55.6%
  proportion of patients with vomiting: 22.2%
Four of five with Grade 1–2 elevation at entry
  patients whose CPK values decreased on study: 80%
Three of 45 treated patients, days 22, 30 and 57
  patients who died (COVID-19-related): 6.7%
